Experimental data published in ChEMBL document CHEMBL2021863, “Design and synthesis of new 4-pyrazolin-3-yl-1,2,3-triazoles and 1,2,3-triazol-4-yl-pyrazolin-1-ylthiazoles as potential antimicrobial agents” (2012).
≈ marks a conversion by molar mass, not a printed value.

Key:
[1] = test system: Staphylococcus aureus; assay: Antimicrobial activity against Staphylococcus aureus ATCC 29213 at 100 ug/ml after 24 hrs by agar well diffusion assay; type: functional; conditions: ATCC 29213, 24 h, read-out: DIZ
[2] = test system: Bacillus subtilis; assay: Antimicrobial activity against Bacillus subtilis ATCC 6633 at 100 ug/ml after 24 hrs by agar well diffusion assay; type: functional; conditions: ATCC 6633, 24 h, read-out: DIZ
[3] = test system: Priestia megaterium; assay: Antimicrobial activity against Bacillus megaterium ATCC 9885 at 100 ug/ml after 24 hrs by agar well diffusion assay; type: functional; conditions: ATCC 9885, 24 h, read-out: DIZ
[4] = test system: Micrococcus luteus; assay: Antimicrobial activity against Sarcina lutea at 100 ug/ml after 24 hrs by agar well diffusion assay; type: functional; conditions: read-out: DIZ
[5] = test system: Klebsiella pneumoniae; assay: Antimicrobial activity against Klebsiella pneumoniae ATCC 13883 at 100 ug/ml after 24 hrs by agar well diffusion assay; type: functional; conditions: ATCC 13883, 24 h, read-out: DIZ
[6] = test system: Pseudomonas aeruginosa; assay: Antimicrobial activity against Pseudomonas aeruginosa ATCC 27953 at 100 ug/ml after 24 hrs by agar well diffusion assay; type: functional; conditions: ATCC 27953, 24 h, read-out: DIZ
[7] = test system: Escherichia coli; assay: Antimicrobial activity against Escherichia coli ATCC 25922 at 100 ug/ml after 24 hrs by agar well diffusion assay; type: functional; conditions: ATCC 25922, 24 h, read-out: DIZ
[8] = test system: Saccharomyces cerevisiae; assay: Antifungal activity against Saccharomyces cerevisiae at 100 ug/ml after 24 hrs by agar well diffusion assay; type: functional; conditions: read-out: DIZ
[9] = test system: Candida albicans; assay: Antifungal activity against Candida albicans NRRL Y-477 at 100 ug/ml after 24 hrs by agar well diffusion assay; type: functional; conditions: NRRL Y-477, 24 h, read-out: DIZ
[10] = test system: Staphylococcus aureus; assay: Antimicrobial activity against Staphylococcus aureus ATCC 29213 after 24 hrs by two-fold serial dilution method; type: functional; conditions: ATCC 29213, 24 h
[11] = test system: Bacillus subtilis; assay: Antimicrobial activity against Bacillus subtilis ATCC 6633 after 24 hrs by two-fold serial dilution method; type: functional; conditions: ATCC 6633, 24 h
[12] = test system: Priestia megaterium; assay: Antimicrobial activity against Bacillus megaterium ATCC 9885 after 24 hrs by two-fold serial dilution method; type: functional; conditions: ATCC 9885, 24 h
[13] = test system: Micrococcus luteus; assay: Antimicrobial activity against Sarcina lutea after 24 hrs by two-fold serial dilution method; type: functional
[14] = test system: Klebsiella pneumoniae; assay: Antimicrobial activity against Klebsiella pneumoniae ATCC 13883 after 24 hrs by two-fold serial dilution method; type: functional; conditions: ATCC 13883, 24 h
[15] = test system: Pseudomonas aeruginosa; assay: Antimicrobial activity against Pseudomonas aeruginosa ATCC 27953 after 24 hrs by two-fold serial dilution method; type: functional; conditions: ATCC 27953, 24 h
[16] = test system: Escherichia coli; assay: Antimicrobial activity against Escherichia coli ATCC 25922 after 24 hrs by two-fold serial dilution method; type: functional; conditions: ATCC 25922, 24 h
[17] = test system: Saccharomyces cerevisiae; assay: Antifungal activity against Saccharomyces cerevisiae by two-fold serial dilution method; type: functional
[18] = test system: Candida albicans; assay: Antifungal activity against Candida albicans NRRL Y-477 by two-fold serial dilution method; type: functional
[19] = test system: Priestia megaterium; assay: Antimicrobial activity against Bacillus megaterium ATCC 9885 at 50 ug/ml after 24 hrs by agar well diffusion assay; type: functional; conditions: ATCC 9885, 24 h, read-out: DIZ
[20] = test system: Micrococcus luteus; assay: Antimicrobial activity against Sarcina lutea at 50 ug/ml after 24 hrs by agar well diffusion assay; type: functional; conditions: read-out: DIZ
[21] = test system: Staphylococcus aureus; assay: microbe, parasite or virus in culture; conditions: ATCC 29213, 24 h, read-out: DIZ
Description: Antimicrobial activity against Staphylococcus aureus ATCC 29213 at 50 ug/ml after 24 hrs by agar well diffusion assay

[22] = test system: Bacillus subtilis; assay: microbe, parasite or virus in culture; conditions: ATCC 6633, 24 h, read-out: DIZ
Description: Antimicrobial activity against Bacillus subtilis ATCC 6633 at 50 ug/ml after 24 hrs by agar well diffusion assay

[23] = test system: Klebsiella pneumoniae; assay: microbe, parasite or virus in culture; conditions: ATCC 13883, 24 h, read-out: DIZ
Description: Antimicrobial activity against Klebsiella pneumoniae ATCC 13883 at 50 ug/ml after 24 hrs by agar well diffusion assay

[24] = test system: Pseudomonas aeruginosa; assay: microbe, parasite or virus in culture; conditions: ATCC 27953, 24 h, read-out: DIZ
Description: Antimicrobial activity against Pseudomonas aeruginosa ATCC 27953 at 50 ug/ml after 24 hrs by agar well diffusion assay

[25] = test system: Saccharomyces cerevisiae; assay: Antifungal activity against Saccharomyces cerevisiae at 50 ug/ml after 24 hrs by agar well diffusion assay; type: functional; conditions: read-out: DIZ
[26] = test system: Candida albicans; assay: Antifungal activity against Candida albicans NRRL Y-477 at 50 ug/ml after 24 hrs by agar well diffusion assay; type: functional; conditions: NRRL Y-477, 24 h, read-out: DIZ

| Structure (SMILES) | MIC [10] | MIC [11] | MIC [12] | MIC [13] | MIC [14] | MIC [15] | MIC [16] | MIC [17] | MIC [18] | other results |
| --- | --- | --- | --- | --- | --- | --- | --- | --- | --- | --- |
| Cc1ccc(-n2nnc(C3=NN(c4nc(-c5ccccc5)cs4)C(c4ccc(F)cc4)C3)c2C)cc1 (stereo not given) | 16.5 µg/mL (≈ 33.4 µM) | 33 µg/mL (≈ 66.7 µM) | 33 µg/mL (≈ 66.7 µM) | 66 µg/mL (≈ 133 µM) | 33 µg/mL (≈ 66.7 µM) | 8.25 µg/mL (≈ 16.7 µM) | 132 µg/mL (≈ 267 µM) | 33 µg/mL (≈ 66.7 µM) | 66 µg/mL (≈ 133 µM) | zone of inhibition at 100 µg/mL [1]: 26 mm; zone of inhibition at 100 µg/mL [2]: 24 mm; zone of inhibition at 100 µg/mL [3]: 24 mm; zone of inhibition at 100 µg/mL [4]: 22 mm; zone of inhibition at 100 µg/mL [5]: 26 mm; zone of inhibition at 100 µg/mL [6]: 28 mm; zone of inhibition at 100 µg/mL [7]: 16 mm; zone of inhibition at 100 µg/mL [8]: 22 mm; zone of inhibition at 100 µg/mL [9]: 20 mm |
| O=C(O)c1cn(C2CC2)c2cc(N3CCNCC3)c(F)cc2c1=O [CIPROFLOXACIN] | 8.25 µg/mL (≈ 24.9 µM) | 8.25 µg/mL (≈ 24.9 µM) | 8.25 µg/mL (≈ 24.9 µM) | 16.5 µg/mL (≈ 49.8 µM) | 16.5 µg/mL (≈ 49.8 µM) | 16.5 µg/mL (≈ 49.8 µM) | 16.5 µg/mL (≈ 49.8 µM) |  |  | zone of inhibition at 50 µg/mL [19]: 24 mm; zone of inhibition at 50 µg/mL [20]: 20 mm; zone of inhibition at 50 µg/mL [21]: 20 mm; zone of inhibition at 50 µg/mL [22]: 22 mm; zone of inhibition at 50 µg/mL [23]: 25 mm; zone of inhibition at 50 µg/mL [24]: 24 mm |
| CC(=O)N1CCN(c2ccc(OCC3COC(Cn4ccnc4)(c4ccc(Cl)cc4Cl)O3)cc2)CC1 (stereo not given) [KETOCONAZOLE] |  |  |  |  |  |  |  | 8.25 µg/mL (≈ 15.5 µM) | 8.25 µg/mL (≈ 15.5 µM) | zone of inhibition at 50 µg/mL [25]: 23 mm; zone of inhibition at 50 µg/mL [26]: 22 mm |
